≈ marks a conversion by molar mass, not a printed value. Read-outs that look alike come from different tables or passages of the source.
Legend:
[1] = tested on: uninfected THP-1 macrophages; assay: THP-1 cytotoxicity (ATPLite)
[2] = tested on: Mtb (Erdman); assay: Extracellular Mtb (Erdman) growth on cholesterol-supplemented (0.01%) media, MABA; assay type: cell-based, Mycobacterium tuberculosis; settings: Mycobacterium tuberculosis, ERDMAN, 168 h, MABA 1 week post-compound treatment, mean ± SD n = 3, read-out: mixed media IC50 (Erdman)
[3] = target: T1, CYP125 (Mycobacterium tuberculosis, UniProt P9WPP1); assay: biochemical; assay type: binding; settings: read-out: KD (μM) CYP125
T1 sequence (P9WPP1 whole entry): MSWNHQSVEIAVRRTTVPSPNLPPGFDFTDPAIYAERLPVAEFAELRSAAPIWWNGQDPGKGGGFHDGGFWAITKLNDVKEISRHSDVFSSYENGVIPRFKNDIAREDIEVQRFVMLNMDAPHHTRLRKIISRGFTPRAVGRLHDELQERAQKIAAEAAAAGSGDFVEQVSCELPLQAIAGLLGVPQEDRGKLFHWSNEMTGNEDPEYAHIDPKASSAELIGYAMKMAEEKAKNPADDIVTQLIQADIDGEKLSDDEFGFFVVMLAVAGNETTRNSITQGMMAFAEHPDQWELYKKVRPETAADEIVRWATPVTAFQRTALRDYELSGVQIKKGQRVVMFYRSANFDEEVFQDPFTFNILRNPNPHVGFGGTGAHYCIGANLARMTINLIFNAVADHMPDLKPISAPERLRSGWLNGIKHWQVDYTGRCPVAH

[4] = tested on: Mtb CDC1551; assay: Extracellular Mtb growth on cholesterol, MABA MIC99; assay type: cell-based, Mycobacterium tuberculosis; settings: cholesterol as sole carbon source, 2 weeks post-compound treatment, read-out: MABA-MIC99 (W2) CDC1551, cholesterol
[5] = target: T1, CYP125; assay: LC-MS substrate turnover assay (cholest-4-en-3-one); assay type: biochemical; settings: for IC50: CYP125 0.5 μM, cholest-4-en-3-one 5 µM, LC-MS, read-out: CYP125A1 IC50; for Ki: estimated by Cheng-Prusoff, cholest-4-en-3-one Km CYP125 = 2.1 µM, read-out: CYP125A1 KI
[6] = tested on: Mtb H37Rv; assay: Depletion of intracellular ATP (BacTiter Glo), Mtb on cholesterol; assay type: cell-based, Mycobacterium tuberculosis; settings: cholesterol as sole carbon source
[7] = tested on: Mtb CDC1551; assay: Depletion of intracellular ATP, Mtb on glucose; settings: glucose as sole carbon source
Method: (§4) (Mtb) H37Rv or CDC1551 strains were grown in Middlebrook 7H9 broth medium (Difco) supplemented with 0.3 g/L casitone, 0.81 g/L NaCl, 0.05% (v/v) tyloxapol, and either 97 mg/L cholesterol, 4 g/L glucose, or 0.2% glycerol. For inhibitor assays, a 10-fold serial dilution of the test compounds was made in the desired medium in duplicate rows of a 96-well plate. Mtb cells were then added to all the wells at the final concentration of 1 × 10^4 CFU, and plates were incubated at 37 °C for up to 15 days. Minimum inhibitory concentrations (MIC99) were determined using the Microplate Alamar Blue Assay (MABA) on day 15.
(§5) BacTiter Glo reagent (Promega) was added to microtiter plates (1:10 dilution) and luminescence was recorded after 15 min of incubation at room temperature. […] Isoniazid or p-amino salicylic acid were used as positive control compounds for all experiments. Reported MIC and IC50 values are the mean of duplicate treatments.

[8] = tested on: Mtb CDC1551; assay: Depletion of intracellular ATP (BacTiter Glo), Mtb on cholesterol; assay type: cell-based; settings: Mycobacterium tuberculosis, cholesterol as sole carbon source
[9] = target: T2, CYP1A (Homo sapiens, UniProt P05177); assay: Inhibition of human liver microsomal P450s; assay type: in vitro ADME
T2 construct: from tissue; host or cells: human liver microsomes
T2 sequence (P05177 2-516 limits assumed): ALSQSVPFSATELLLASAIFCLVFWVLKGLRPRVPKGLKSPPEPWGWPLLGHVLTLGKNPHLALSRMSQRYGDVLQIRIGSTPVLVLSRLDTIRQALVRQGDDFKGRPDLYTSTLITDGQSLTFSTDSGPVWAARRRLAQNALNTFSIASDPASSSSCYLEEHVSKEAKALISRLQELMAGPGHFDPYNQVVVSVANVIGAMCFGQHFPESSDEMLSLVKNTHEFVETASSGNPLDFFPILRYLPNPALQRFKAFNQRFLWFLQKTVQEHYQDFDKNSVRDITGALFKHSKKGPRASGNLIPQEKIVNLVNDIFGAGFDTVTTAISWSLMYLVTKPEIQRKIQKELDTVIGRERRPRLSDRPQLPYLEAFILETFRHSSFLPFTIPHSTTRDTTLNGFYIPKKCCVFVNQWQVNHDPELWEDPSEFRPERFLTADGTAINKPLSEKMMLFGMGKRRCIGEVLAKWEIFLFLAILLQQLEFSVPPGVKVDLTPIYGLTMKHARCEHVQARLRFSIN
Excerpt: (§1) Table S8. Inhibition of human liver microsomal P450s. Inhibition constants (IC 50 values, µM) of
(§2) following substrates: CYP1A-ethoxyresorufin, CYP2C19- mephenytoin, CYP2C9-tolbutamide, CYP2D6-
(§3) dextromethorphan, CYP3A4-midazolam/testosterone.

[10] = target: T3, CYP2D6 (Homo sapiens, UniProt P10635); assay: Inhibition of human liver microsomal P450s; assay type: in vitro ADME
T3 construct: from tissue; host or cells: human liver microsomes
T3 sequence (P10635 whole entry): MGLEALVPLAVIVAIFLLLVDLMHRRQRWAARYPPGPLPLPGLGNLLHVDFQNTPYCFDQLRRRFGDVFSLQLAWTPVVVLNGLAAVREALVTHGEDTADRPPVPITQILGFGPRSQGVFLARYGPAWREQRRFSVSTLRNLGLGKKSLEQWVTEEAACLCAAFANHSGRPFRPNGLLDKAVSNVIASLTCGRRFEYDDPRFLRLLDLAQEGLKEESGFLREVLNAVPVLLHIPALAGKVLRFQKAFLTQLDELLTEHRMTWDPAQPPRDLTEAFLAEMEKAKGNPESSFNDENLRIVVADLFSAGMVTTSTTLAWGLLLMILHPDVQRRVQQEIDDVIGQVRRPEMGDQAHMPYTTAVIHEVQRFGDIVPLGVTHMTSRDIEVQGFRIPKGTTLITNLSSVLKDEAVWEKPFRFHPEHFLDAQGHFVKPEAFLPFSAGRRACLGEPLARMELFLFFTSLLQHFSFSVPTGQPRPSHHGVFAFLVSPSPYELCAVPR
Excerpt: as §1, §2, §3

[11] = target: T4, CYP2C9 (Homo sapiens, UniProt P11712); assay: Inhibition of human liver microsomal P450s; assay type: in vitro ADME
T4 construct: from tissue; host or cells: human liver microsomes
T4 sequence (P11712 whole entry): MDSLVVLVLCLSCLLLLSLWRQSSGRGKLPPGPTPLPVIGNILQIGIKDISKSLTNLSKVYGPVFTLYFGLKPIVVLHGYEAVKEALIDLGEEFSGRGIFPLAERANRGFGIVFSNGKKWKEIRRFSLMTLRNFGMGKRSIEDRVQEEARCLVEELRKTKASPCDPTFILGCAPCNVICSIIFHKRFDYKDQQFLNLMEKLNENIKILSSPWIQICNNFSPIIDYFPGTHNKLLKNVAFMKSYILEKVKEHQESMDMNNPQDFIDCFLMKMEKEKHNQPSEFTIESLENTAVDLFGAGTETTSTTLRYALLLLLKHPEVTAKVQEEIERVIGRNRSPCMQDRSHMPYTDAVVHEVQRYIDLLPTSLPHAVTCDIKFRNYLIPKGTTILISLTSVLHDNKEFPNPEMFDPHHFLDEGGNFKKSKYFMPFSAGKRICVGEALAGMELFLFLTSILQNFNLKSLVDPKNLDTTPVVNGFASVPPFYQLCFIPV
Excerpt: as §1, §2, §3

[12] = target: T5, CYP2C19 (Homo sapiens, UniProt P33261); assay: Inhibition of human liver microsomal P450s; assay type: in vitro ADME
T5 construct: from tissue; host or cells: human liver microsomes
T5 sequence (P33261 whole entry): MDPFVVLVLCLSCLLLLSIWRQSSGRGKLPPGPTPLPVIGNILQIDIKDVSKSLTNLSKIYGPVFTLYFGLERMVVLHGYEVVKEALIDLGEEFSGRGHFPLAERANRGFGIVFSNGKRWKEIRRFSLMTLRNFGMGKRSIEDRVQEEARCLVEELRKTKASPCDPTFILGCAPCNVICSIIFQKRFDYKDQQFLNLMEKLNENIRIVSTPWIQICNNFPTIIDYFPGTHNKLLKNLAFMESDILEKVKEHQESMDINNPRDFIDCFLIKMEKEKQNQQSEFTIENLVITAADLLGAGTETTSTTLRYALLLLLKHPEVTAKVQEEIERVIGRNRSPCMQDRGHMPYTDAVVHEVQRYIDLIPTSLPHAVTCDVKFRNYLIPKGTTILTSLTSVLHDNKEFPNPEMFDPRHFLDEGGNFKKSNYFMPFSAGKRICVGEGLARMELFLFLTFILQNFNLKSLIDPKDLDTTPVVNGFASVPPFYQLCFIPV
Excerpt: as §1, §2, §3

[13] = target: T6, CYP3A4 (Homo sapiens, UniProt P08684); assay: Inhibition of human liver microsomal P450s; assay type: in vitro ADME
T6 construct: from tissue; host or cells: human liver microsomes
T6 sequence (P08684 whole entry): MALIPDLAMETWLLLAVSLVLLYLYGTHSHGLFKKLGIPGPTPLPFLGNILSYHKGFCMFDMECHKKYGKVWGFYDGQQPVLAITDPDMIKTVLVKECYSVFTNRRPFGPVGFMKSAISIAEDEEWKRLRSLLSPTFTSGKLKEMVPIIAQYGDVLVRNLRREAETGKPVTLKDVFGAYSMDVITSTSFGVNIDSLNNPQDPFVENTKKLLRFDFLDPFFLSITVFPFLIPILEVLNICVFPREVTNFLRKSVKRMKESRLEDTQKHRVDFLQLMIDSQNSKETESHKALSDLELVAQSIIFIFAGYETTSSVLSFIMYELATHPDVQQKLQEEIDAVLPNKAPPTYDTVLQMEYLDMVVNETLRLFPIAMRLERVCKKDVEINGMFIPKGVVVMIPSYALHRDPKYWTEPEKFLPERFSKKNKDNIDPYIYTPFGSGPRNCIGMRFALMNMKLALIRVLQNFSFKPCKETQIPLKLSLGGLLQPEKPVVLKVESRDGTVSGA
Excerpt: as §1, §2, §3

[14] = tested on: Mtb H37Rv pATB45luc in THP-1 macrophages; assay: microbe, parasite or virus in culture; assay type: cell-based; settings: Mycobacterium tuberculosis, 120 h, 5 days post-compound treatment, mean ± SD n = 2, read-out: intracellular growth Mtb IC50
[15] = tested on: Mtb H37Rv; assay: Extracellular Mtb growth on cholesterol, MABA MIC99; assay type: cell-based, Mycobacterium tuberculosis; settings: cholesterol as sole carbon source, 2 weeks post-compound treatment, read-out: MABA-MIC99 (W2) H37Rv, cholesterol
[16] = tested on: Mtb H37Rv
Method: as §4, §5

[17] = target: CYP142 (Mycobacterium tuberculosis, UniProt P9WPL5); assay: biochemical
Sequence of CYP142 (P9WPL5 whole entry): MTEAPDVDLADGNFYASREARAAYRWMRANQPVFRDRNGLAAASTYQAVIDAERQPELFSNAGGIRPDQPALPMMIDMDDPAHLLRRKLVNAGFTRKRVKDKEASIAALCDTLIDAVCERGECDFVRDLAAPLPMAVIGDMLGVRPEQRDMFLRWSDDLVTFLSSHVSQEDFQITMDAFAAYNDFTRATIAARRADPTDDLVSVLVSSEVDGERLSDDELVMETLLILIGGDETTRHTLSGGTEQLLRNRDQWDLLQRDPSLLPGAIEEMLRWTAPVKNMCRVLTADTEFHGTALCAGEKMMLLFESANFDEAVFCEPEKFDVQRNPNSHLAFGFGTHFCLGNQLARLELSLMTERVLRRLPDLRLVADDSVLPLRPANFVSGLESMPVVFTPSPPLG

[18] = Mycobacterium tuberculosis, CDC1551, 336 h
[19] = Mycobacterium tuberculosis, H37RV, 168 h, 1 week post-compound treatment, read-out: ATP-IC50 (W1) H37Rv, cholesterol
[20] = Mycobacterium tuberculosis, H37RV, 336 h, 2 weeks post-compound treatment, read-out: ATP-IC50 (W2) H37Rv, cholesterol
[21] = read-out: ATP IC50 (W1) CDC1551, glucose media, 1 week
[22] = CDC1551, 168 h, 1 week post-compound treatment, read-out: ATP-IC50 (W1) CDC1551, cholesterol
[23] = CDC1551, 336 h, 2 weeks post-compound treatment, read-out: ATP-IC50 (W2) CDC1551, cholesterol
[24] = Mycobacterium tuberculosis, H37RV, 336 h
[25] = read-out: ATP IC50 (W2) CDC1551, glucose media, 2 weeks

O=C(Nc1ccc(Cc2ccncc2)cc1)[C@H](Cc1c[nH]c2ccccc12)NCc1ccccc1 [5d, (S)-2-(Benzylamino)-3-(1H-indol-3-yl)-N-(4-(pyridin-4-ylmethyl)phenyl)propanamide]
THP-1 cytotoxicity in words ([1]; concentrations up to 50 μM): weakly cytotoxic
THP-1 LD50 ([1]; uninfected THP-1 macrophages, ATP-dependent luminescence, 5 days, top concentration 50 μM): 45 µM
IC50 [2]: 18 ± 3 µM
Kd [3]: 0.072 ± 0.026 µM
MIC99 [4, 18]: 25 µM (≈ 11.5 µg/mL)
IC50 [5]: 0.79 ± 0.09 µM
Ki [5]: 0.23 µM
IC50 [6, 19]: 4.7 µM
IC50 [6, 20]: 4.7 µM
IC50 ([6]; 1 week post-compound treatment, read-out: ATP-IC50 (W1) H37Rv, cholesterol): < 5 µM
IC50 [7, 21]: 19 µM
IC50 [8, 22]: 4.7 µM
IC50 [8, 23]: 38 µM
IC50 [9]: 0.11 µM
IC50 [10]: 0.46 µM
IC50 [11]: 0.14 µM
IC50 [12]: < 0.1 µM
IC50 ([13]; CYP3A4 IC50 (midazolam), substrate midazolam (first value of cell)): 0.52 µM
IC50 ([13]; CYP3A4 IC50 (testosterone), substrate testosterone (second value of cell)): 1.49 µM
IC50 [14]: 2.8 ± 0.2 µM
MIC99 [15, 24]: 25 µM (≈ 11.5 µg/mL)

O=C(NCc1ccc2[nH]ccc2c1)c1ccc(Cc2ccncc2)cc1 [5f, N-((1H-Indol-5-yl)methyl)-4-(pyridin-4-ylmethyl)benzamide]
IC50 [16]: > 50 µM
Kd [3]: 0.59 ± 0.24 µM
MIC99 [4, 18]: > 50 µM
MIC99 [4]: >50 µM
IC50 [5]: 3.6 ± 0.41 µM
Ki [5]: 1.1 µM
IC50 [6, 19]: > 50 µM
IC50 [6, 20]: > 50 µM
IC50 [7, 21]: > 50 µM
IC50 [7, 25]: > 50 µM
IC50 [8, 22]: > 50 µM
IC50 [8, 23]: > 50 µM
Kd [17]: 3.2 ± 0.04 µM
MIC99 [15, 24]: > 50 µM
MIC99 [15]: >50 µM

C[C@@H](NC(=O)c1cccc(Cc2ccncc2)c1)c1ccccc1 [5h, (R)-N-(1-Phenylethyl)-3-(pyridin-4-ylmethyl)benzamide]
Kd [3]: 40 ± 2 µM
MIC99 [4, 18]: 25 µM (≈ 7.91 µg/mL)
IC50 [6, 19]: 9.4 µM
IC50 [6, 20]: 19 µM
IC50 [7, 21]: 19 µM
IC50 [8, 22]: 2.3 µM
IC50 [8, 23]: 38 µM
Kd [17]: 3.3 ± 0.29 µM
MIC99 [15, 24]: 25 µM (≈ 7.91 µg/mL)

C[C@@H](NC(=O)c1ccc(Cc2ccncc2)cc1)c1ccccc1 [5i, (R)-N-(1-Phenylethyl)-4-(pyridin-4-ylmethyl)benzamide]
Kd [3]: 7.4 ± 1 µM
MIC99 [4, 18]: 25 µM (≈ 7.91 µg/mL)
IC50 [5]: 33 ± 3.7 µM
Ki [5]: 9.8 µM
IC50 [6, 19]: 9.4 µM
IC50 [6, 20]: 4.7 µM
IC50 [7, 21]: 19 µM
IC50 [8, 22]: 2.3 µM
IC50 [8, 23]: 38 µM
Kd [17]: 0.64 ± 0.47 µM
MIC99 [15, 24]: 25 µM (≈ 7.91 µg/mL)

O=S(=O)(Nc1ccc(Cc2ccncc2)cc1)c1ccccc1 [5j, N-(4-(Pyridin-4-ylmethyl)phenyl)benzenesulfonamide]
IC50 [16]: 19 µM
Kd [3]: 0.27 ± 0.02 µM
MIC99 [4, 18]: 25 µM (≈ 8.11 µg/mL)
IC50 [5]: 1.5 ± 0.16 µM
Ki [5]: 0.44 µM
IC50 [6, 19]: 38 µM
IC50 [6, 20]: 50 µM
IC50 [7, 21]: 38 µM
IC50 [7, 25]: 38 µM
IC50 [8, 22]: 9.4 µM
IC50 [8, 23]: > 50 µM
MIC99 [15, 24]: 50 µM (≈ 16.2 µg/mL)
